From patent US5910509A, “Antimicrobial agent for agriculture” (priority 1996, dated 1999)
Where two headings read alike, the source gives them in different places.

How the values were obtained:
Fungal cells = assay: Disk diffusion assay for antimicrobial activity; format: cell-based; settings: 37° C., 24 hours; for zone appearance (clear = fungicidal, hazy = fungistatic): disk diffusion; for zone of growth inhibition diameter: positive control disks 2.5 and 10 μg; for zone of inhibition at 100 µg/disc: 100 μg per 6 mm disk, Sabouraud Dextrose Agar, read-out: zone of growth inhibition diameter
Method: (§1) Fungal cells were grown overnight from a single colony in 2-5 ml Sabouraud Dextrose Broth at 37° C. 1-5×10^6 were spread onto Sabouraud Dextrose Agar plates (Difco, Detroit, Mich.). Sterile 6 mm filter disks were evenly spaced with at least about 22 mm separation on the plates. To each disk, 100 μg of a compound to be tested was applied in 5-10 μl DMSO. On each plate, two disks containing 2.5 and 10 μg, respectively, of Amphotericin B (Sigma) and two disks containing 2.5 and 10 μg, respectively, of cerulenin (Sigma) were used as positive controls. A disk containing only DMSO served as the negative control. The plates were incubated at 37° C. for 24 hours and the zone of growth inhibition about each disk was visually examined and measured. Compound A and compound B typically produced clear zones of 8-12 mm diameter. Amphotericin B typically produced a clear zone of 8-10 mm diameter. Cerulenin typically produced a hazy zone of 20-25 mm diameter. A clear zone is indicative of fungicidal activity, while a hazy zone is indicative of fungistatic activity.

[1] = tested on: C. albicans strain ATCC 10231; assay: Murine systemic model of candidiasis; format: in vivo, mice; settings: for Deaths Each Day Post Inoculation: 10 mg/kg IP
Method: In vivo activity was determined using a murine systemic model of candidiasis. Groups of 5 to 10 mice were inoculated IV with 1-2×10^7 cells of C. albicans strain ATCC 10231 (10 times the lethal dose). One hour after inoculation, the candidate antifungal compounds were delivered IP. 10 mg/kg of compound A was injected into each mouse of the compound A treatment group. Two separate treatment groups received 30 and 100 mg/kg, respectively, of compound B. Amphotericin B was injected into a positive control treatment group at 10 mg/kg. All compounds were delivered in phosphate-buffered saline (PBS) and one treatment group received PBS. Twice daily thereafter the mice were observed, the number of dead mice recorded, and the dead mice removed. After nine days, the total mortality over the period was determined.
Using the same methodology, it was determined that the maximal tolerated dose in these mice (i.e., the maximum dose that caused no deaths within 72 hours following IP administration) of compound B was in excess of 200 mg/kg. The mice treated with 2108B or Amphotericin B injected IP in […] of phosphate buffered saline, pH 7.4 had the following treatment profiles: […]

FAS = molecular target: T1, FAS (Candida albicans, UniProt P43098); assay: FAS activity in extracts of treated C. albicans cultures (Example 10); format: cell-based
T1 construct: endogenous in cells; host or cells: Candida albicans strain 4918
Method: C. Albicans strain 4918 (available from Dr. Ronald Cihlar, Georgetown University Medical Center, Washington, D.C.) was grown in minimal medium (M63 media available from Difco, Detroit, Mich.) at 37° C. to mid-log phase. 10 μg/ml cerulenin and 25 μg/ml of compound B were added to separate cultures. At 15 minute intervals, 20 ml samples were removed and extracts prepared by mechanical extraction as in Example 1C, except that the ammonium sulfate precipitation step was not applied. The extract was diluted to 1 ml to form a solution containing 0.4M potassium phosphate, pH 7.3, 0.125 μM dithiothreitol, 50 μM acetyl-CoA, 100 μM NADPH. After incubation at 37° C. for 5 minutes, 100 μM malonyl-CoA containing 0.5 μCi [2-^14 C]-malonyl-CoA (Amersham, Arlington Heights, Ill.). After 10 minutes at 37° C., the fatty acid synthesis reaction was terminated by adding 30 μl of 60% perchloric acid (v/v) and 1 ml ethanol. Four volumes of pet. ether were added to each reaction incubation to extract the fatty acids. The relative incorporation of malonyl-CoA into fatty acids was determined by liquid scintillation counting.

[2] = tested on: Candida albicans (strains ATCC 10231 and ATCC 10261); assay: Disk diffusion assay, Candida albicans; format: cell-based
Method: as §1

[3] = tested on: Fusarium acuminatum (strains ATCC 32965 and ATCC 32966); assay: Disk diffusion assay, Fusarium acuminatum; format: cell-based
Method: as §1

[4] = tested on: Candida Albicans strain B311A; assay: MIC assay (Example 1B); format: cell-based; settings: purification fractions, result in words
Method: The fractions from the purification were tested for antifungal activity against C. albicans (strain B311A available from Dr. Paul Actor, Temple University and strains ATCC Nos. 10231 and 10261) and C. tropicalis (strain 13803). Fungi were grown in 1× yeast nitrogen broth ("YNB") medium (BBL, Cockeysville, Md.) containing 15 μg/ml aspargine and 100 μg/ml kanamycin. Prior to the assay for antifungal activity, the fungus to be tested for susceptibility was grown overnight from a single colony in 5 ml of medium at 30° C. This overnight culture was diluted 1:10 with fresh medium and grown at 37° C. for 4 hours. A volume of 5 μl of extracts, dissolved in DMSO, was added to each separate well in a series of 96-well plates. 4,000 fungal cells were then added to each plate in 95 μl of medium. The optical densities of the wells were measured and the plates incubated at 37° C. The optical densities were again measured after 24 and 48 hours. Minimum inhibitory concentrations ("MICs") for the extracts were determined using this procedure wherein the extracts were serially diluted in medium prior to mixing with the 4,000 fungal cells.
Using the procedure described in the previous paragraph, it was determined that the MICs for compound A and compound B against Candida Albicans strain B311A grown in YNB medium were 25 μg/ml and 6.25 μg/ml, respectively. […]

FAS from S. cereviseae = molecular target: T2, FAS from S. cereviseae (Saccharomyces cerevisiae, UniProt P07149+P19097); assay: FAS inhibition assay (Example 1C); format: biochemical, Saccharomyces cerviseae; settings: result in words
T2 construct: an FAS extract from Saccharomyces cerviseae was prepared; (the yeast cells); host or cells: Fleishmans' freeze dried yeast (Saccharomyces cerevisiae); lysate, 50% ammonium sulfate precipitate, dialyzed
Method: To test the compounds for FAS inhibitory activity, an FAS extract from Saccharomyces cerviseae was prepared. Freeze dried yeast (Fleishmans' freeze dried yeast, Specialty Brands, San Francisco, Calif.) 1 g, was hydrated in 5 mls deionized water for 15 minutes at 4° C. Subsequent extraction steps were conducted at a temperature between 4° C. and 10° C., except that in the cell lysis step the temperature may have briefly exceeded these boundaries. The cells were pelleted by centrifugation; the pelleted volume was measured; and the cells were resuspended in 5 vol. (5 mls per ml cell volume) extraction buffer [125 mM KH2PO4, pH 6.6, 1 mM EDTA, 1 mM DTT, 0.7 μg/ml pepstatin (Boehringer Mannheim, Indianapolis, Ind.), 0.2 μg/ml aprotinin (Boehringer Mannheim, Indianapolis, Ind.), 0.2 μg/ml leupeptin (Boehringer Mannheim, Indianapolis, Ind.)]. The cells were again pelleted and resuspended in 2 vol. extraction buffer. […]
105 μl of FAS extract was placed in each well of a polypropylene 96 well plate (Costar Corp. Cambridge, Mass.) and multiple 5 μl dilutions of compound A, compound B or negative control solution were introduced into each of the wells. […] The relative initial reaction rates in each well were measured by measuring the decrease in optical density at 340 nm using a UV Max microtiter plate reader (Molecular Devices, Sunnyvalle, Calif.).

[5] = tested on: Candida tropicalis (strain ATCC 13803); assay: Disk diffusion assay, Candida tropicalis; format: cell-based
Method: as §1

[6] = 0.5 h, read-out: Percent Remaining FAS Activity

T1 sequence (P43098 whole entry): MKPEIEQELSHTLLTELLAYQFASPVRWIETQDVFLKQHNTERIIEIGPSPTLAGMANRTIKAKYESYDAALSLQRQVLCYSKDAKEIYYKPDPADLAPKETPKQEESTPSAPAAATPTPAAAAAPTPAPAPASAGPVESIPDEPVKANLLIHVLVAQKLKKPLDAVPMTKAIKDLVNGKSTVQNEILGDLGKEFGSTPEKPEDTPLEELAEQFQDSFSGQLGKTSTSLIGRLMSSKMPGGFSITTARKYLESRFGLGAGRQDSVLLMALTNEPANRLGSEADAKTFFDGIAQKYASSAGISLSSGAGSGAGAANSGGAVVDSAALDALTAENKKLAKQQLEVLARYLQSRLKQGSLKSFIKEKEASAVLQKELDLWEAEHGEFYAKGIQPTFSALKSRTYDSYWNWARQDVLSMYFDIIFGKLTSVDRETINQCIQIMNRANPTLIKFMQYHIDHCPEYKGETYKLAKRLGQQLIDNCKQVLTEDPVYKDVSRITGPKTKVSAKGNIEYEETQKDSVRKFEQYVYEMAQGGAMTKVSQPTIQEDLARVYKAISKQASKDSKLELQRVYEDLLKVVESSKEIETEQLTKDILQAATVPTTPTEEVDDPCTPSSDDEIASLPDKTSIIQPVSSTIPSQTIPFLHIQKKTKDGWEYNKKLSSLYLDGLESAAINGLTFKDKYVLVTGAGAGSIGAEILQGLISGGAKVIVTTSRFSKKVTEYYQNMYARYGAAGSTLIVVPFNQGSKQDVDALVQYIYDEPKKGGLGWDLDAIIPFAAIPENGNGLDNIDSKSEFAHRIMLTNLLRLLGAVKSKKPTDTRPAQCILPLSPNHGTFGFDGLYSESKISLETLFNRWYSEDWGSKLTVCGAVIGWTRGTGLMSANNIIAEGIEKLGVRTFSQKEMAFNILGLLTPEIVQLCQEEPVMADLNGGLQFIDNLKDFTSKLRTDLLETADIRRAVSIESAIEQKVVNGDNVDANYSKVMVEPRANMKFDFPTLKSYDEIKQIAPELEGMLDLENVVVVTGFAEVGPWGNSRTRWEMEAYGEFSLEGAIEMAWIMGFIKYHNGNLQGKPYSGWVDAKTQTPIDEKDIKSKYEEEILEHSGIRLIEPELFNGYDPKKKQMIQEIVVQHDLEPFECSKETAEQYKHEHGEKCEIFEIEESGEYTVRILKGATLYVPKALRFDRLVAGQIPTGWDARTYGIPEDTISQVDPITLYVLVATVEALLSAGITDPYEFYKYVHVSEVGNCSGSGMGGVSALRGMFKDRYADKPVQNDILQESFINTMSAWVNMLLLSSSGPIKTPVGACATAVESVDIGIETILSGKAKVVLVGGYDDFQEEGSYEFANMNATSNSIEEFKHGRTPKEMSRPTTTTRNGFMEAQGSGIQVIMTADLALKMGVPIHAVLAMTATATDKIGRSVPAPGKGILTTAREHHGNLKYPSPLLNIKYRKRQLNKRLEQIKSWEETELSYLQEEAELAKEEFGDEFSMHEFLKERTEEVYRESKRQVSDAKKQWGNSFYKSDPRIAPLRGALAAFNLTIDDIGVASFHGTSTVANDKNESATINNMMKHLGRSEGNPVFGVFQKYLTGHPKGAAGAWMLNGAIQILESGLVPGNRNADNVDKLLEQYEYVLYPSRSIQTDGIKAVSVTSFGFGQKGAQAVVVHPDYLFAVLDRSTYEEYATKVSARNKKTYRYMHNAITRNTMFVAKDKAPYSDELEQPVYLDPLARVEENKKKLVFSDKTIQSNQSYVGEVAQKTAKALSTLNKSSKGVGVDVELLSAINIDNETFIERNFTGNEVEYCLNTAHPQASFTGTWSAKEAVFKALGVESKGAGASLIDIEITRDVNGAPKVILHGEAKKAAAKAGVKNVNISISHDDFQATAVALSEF
T1 sequence (P34731 whole entry partner): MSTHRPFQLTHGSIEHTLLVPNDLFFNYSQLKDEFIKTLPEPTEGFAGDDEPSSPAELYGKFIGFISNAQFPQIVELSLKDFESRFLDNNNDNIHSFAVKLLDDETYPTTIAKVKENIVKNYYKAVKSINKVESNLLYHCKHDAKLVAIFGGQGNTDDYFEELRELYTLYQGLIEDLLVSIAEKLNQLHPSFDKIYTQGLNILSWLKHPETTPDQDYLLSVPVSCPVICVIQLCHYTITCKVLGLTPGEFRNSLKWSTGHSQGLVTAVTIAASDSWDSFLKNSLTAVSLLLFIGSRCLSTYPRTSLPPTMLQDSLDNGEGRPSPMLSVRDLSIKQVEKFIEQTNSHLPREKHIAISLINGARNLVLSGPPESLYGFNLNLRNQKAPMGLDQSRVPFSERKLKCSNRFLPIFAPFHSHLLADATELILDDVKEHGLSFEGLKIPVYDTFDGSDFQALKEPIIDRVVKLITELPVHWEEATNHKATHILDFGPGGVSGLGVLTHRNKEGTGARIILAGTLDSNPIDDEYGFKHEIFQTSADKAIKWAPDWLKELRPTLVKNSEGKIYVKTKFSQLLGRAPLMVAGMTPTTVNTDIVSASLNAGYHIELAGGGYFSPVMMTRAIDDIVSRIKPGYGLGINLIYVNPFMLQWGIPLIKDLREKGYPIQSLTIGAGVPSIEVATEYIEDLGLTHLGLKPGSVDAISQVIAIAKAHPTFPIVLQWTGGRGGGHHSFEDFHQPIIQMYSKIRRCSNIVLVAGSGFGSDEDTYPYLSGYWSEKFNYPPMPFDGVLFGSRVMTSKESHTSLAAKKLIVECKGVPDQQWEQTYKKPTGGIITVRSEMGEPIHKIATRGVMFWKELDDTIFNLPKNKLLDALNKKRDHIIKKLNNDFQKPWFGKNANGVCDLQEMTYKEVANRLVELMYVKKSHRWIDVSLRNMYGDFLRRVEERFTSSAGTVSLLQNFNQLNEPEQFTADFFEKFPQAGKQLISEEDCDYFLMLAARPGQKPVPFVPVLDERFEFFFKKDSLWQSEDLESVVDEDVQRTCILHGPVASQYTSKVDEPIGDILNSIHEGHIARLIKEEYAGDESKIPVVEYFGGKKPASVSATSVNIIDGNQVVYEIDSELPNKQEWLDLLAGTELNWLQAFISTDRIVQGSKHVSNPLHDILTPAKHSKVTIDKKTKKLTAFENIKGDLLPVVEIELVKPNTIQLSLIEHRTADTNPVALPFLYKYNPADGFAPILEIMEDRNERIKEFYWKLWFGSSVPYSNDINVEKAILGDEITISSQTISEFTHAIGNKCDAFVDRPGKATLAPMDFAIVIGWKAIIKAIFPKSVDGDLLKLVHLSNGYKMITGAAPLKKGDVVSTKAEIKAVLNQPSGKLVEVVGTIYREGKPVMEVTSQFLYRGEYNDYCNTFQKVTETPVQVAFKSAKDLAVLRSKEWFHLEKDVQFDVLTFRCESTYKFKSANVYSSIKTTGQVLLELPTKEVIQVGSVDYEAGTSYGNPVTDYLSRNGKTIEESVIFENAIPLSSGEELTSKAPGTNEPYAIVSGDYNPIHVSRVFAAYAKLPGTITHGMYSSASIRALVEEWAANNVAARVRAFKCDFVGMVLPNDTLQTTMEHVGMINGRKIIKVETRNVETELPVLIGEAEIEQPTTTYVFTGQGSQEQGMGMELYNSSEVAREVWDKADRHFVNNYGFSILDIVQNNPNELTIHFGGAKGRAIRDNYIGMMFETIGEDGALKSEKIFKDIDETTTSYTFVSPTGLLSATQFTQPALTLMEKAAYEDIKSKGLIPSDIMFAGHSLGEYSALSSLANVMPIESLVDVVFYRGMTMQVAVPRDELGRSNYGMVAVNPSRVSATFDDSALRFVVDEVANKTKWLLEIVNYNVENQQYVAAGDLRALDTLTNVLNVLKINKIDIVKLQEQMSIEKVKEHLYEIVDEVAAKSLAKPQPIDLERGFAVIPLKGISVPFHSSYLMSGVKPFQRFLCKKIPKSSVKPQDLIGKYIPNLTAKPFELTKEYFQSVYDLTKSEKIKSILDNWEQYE

Structure (SMILES) | zone appearance (clear = fungicidal, hazy = fungistatic) (Fungal cells) | zone of growth inhibition diameter (Fungal cells) | zone of inhibition at 100 µg/disc (Fungal cells) [mm] | antimicrobial activity [2] | antimicrobial activity [3] | activity in the MIC assay of Example 1B [4] | activity in the enzyme inhibition assay of Example 1C (FAS from S. cereviseae) | antimicrobial activity [5] | other results
C[C@@H]1[C@H](O)[C@@H](C)/C=C/C=C/C=C/C=C/C=C/C=C/C=C/[C@H](O[C@@H]2O[C@H](C)[C@@H](O)[C@H](N)[C@@H]2O)C[C@@H]2O[C@](O)(C[C@@H](O)C[C@@H](O)[C@H](O)CC[C@@H](O)C[C@@H](O)CC(=O)O[C@H]1C)C[C@H](O)[C@H]2C(=O)O [Amphotericin B] | clear zone | 8-10 mm | – | – | – | – | – | – | % Survival ([1]; 10 mg/kg IP one hour after inoculation, nine days): 80%; Deaths Each Day Post Inoculation ([1]; day 0): 0; Deaths Each Day Post Inoculation ([1]; day 1): 0; Deaths Each Day Post Inoculation ([1]; day 3): 0; Deaths Each Day Post Inoculation ([1]; day 5): 0; Deaths Each Day Post Inoculation ([1]; day 6): 0; Deaths Each Day Post Inoculation ([1]; day 7): 0; Deaths Each Day Post Inoculation ([1]; day 8): 0; Deaths Each Day Post Inoculation ([1]; day 9): 0
C/C=C/C/C=C/CCC(=O)[C@H]1O[C@H]1C(N)=O [Cerulenin, cerulenin] | hazy zone | 20-25 mm | – | – | – | – | – | – | remaining activity at 10 µg/mL (FAS; 0.25 h, read-out: Percent Remaining FAS Activity): 20%; remaining activity at 10 µg/mL (FAS; [6]): 12%
C/C=C/C=C/C=C/C1=CC2=CC(=O)C(C)(OC(=O)CC(C)O)C(=O)C23OC3O1 (centres unmarked) [Compound A] | clear zones | – | 8 to 12 | had antimicrobial activity | had antimicrobial activity | retained activity | retained activity | had antimicrobial activity | –
C/C=C/C=C/C=C/C1=CC2=CC(=O)C(C)(OC(=O)CC(C)O)C(=O)C2=CO1 (centres unmarked) [Compound B] | clear zones | – | 8 to 12 | had antimicrobial activity | had antimicrobial activity | retained activity | not directly inhibitory of FAS | had antimicrobial activity | FAS activity of cell extracts made after exposure (FAS): markedly reduced FAS activity; remaining activity at 25 µg/mL (FAS; [6]): 40%
C/C=C/C=C/C=C/C1=CC2=CC(=O)C(C)(OC(=O)CC(O)CC(C)O)C(=O)C23OC3O1 (centres unmarked) [patulodin] | – | – | 7 | – | – | – | – | – | –
